Experiment [1] relates to Flu A H3N2 Wisconsin 67/2005. As to the kind of experiment: microbe, parasite or virus in culture. In kind it is cell-based. Conditions: Influenza A virus, H3N2, MDCK, read-out: Control EC50.
The next experiment relates to MDCK cell line. The experiment can be described thus: cells. The experiment is classed as cell-based. Conditions: for Control IC50: ribavirin control, with Flu A H5N1.

These results are taken from patent US8765138B2 (priority 2004, dated 2014).

Structures are written as SMILES. In brackets after ≈: the same amount, converted by molar mass. Bounds are passed on as bounds.

As to `NC(=O)c1ncn([C@@H]2O[C@H](CO)[C@@H](O)[C@H]2O)n1` [RIBAVARIN, Ribavirin], in experiment [1], the EC50 (commonly the concentration at which the effect is half-maximal) amounted to 1.9 µg/mL (≈ 7.78 µM). In the experiment with MDCK cell line (Canis lupus familiaris, MDCK, read-out: Control IC50), the IC50 (in general, the midpoint of a concentration-inhibition curve) is more than 320 µg/mL. Further, the “Control IC50” value in the experiment on MDCK cell line (Neutral Red) and in the experiment on MDCK cell line (Visual) was more than 320 µg/mL each time.
